From ChEMBL document CHEMBL1201862, “PubChem BioAssay data set” (2004)
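Each compound was tested at five concentrations against cells in 96-well plates for 48 hours. GI50 is the concentration that inhibits growth by half.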 Calls of active or inactive are those of the source. No stated cut-off is given here; in the data, active = GI50 up to about 1.1 µM and inactive = higher.

Assays:
Test in all cases: NCI tumour cell line growth inhibition, 48 h
[1] = system: M19-MEL
[2] = system: IGROV-1
[3] = system: SF-539
[4] = system: DMS-273
[5] = system: DMS-114
[6] = system: K562
[7] = system: NCI-H226
[8] = system: OVCAR-4
[9] = system: NCI-H522
[10] = system: SF-295
[11] = system: OVCAR-3
[12] = system: HL-60
[13] = system: MOLT-4
[14] = system: SN12C
[15] = system: CAKI-1
[16] = system: HOP-62
[17] = system: HT-29
[18] = system: UACC-62
[19] = system: 786-0
[20] = system: Malme-3M
[21] = system: SW-620
[22] = system: OVCAR-5
[23] = system: OVCAR-8
[24] = system: DLD-1
[25] = system: HCC 2998
[26] = system: U-251
[27] = system: UACC-257
[28] = system: SK-MEL-2
[29] = system: LXFL 529
[30] = system: HOP-92
[31] = system: SK-MEL-5
[32] = system: SK-MEL-28
[33] = system: ACHN
[34] = system: SR
[35] = system: M14
[36] = system: KM12
[37] = system: A549
[38] = system: NCI-H23
[39] = system: HCT-116
[40] = system: UO-31
[41] = system: EKVX
[42] = system: TK-10
[43] = system: RPMI-8226
[44] = system: KM-20L2
[45] = system: SNB-19
[46] = system: CCRF-CEM
[47] = system: COLO 205
[48] = system: HCT-15
[49] = system: SF-268
[50] = system: SNB-78
[51] = system: NCI-H460
[52] = system: A498
[53] = system: SK-OV-3
[54] = system: LOX IMVI
[55] = system: RXF 393
[56] = system: SNB-75

Measured: GI50

O=C(c1nc2ccc(Cl)cc2nc1O)C(O)c1ccccc1 (stereo not given)
inactive: [1] > 100 µM | [2] > 100 µM | [3] 57.7 µM | [4] 98.6 µM | [5] 56.5 µM | [6] 21.8 µM | [7] 84.7 µM | [8] 14.3 µM | [9] 10.9 µM | [10] > 100 µM | [11] 32.8 µM | [12] 9.86 µM | [13] 13.2 µM | [14] > 100 µM | [15] 65.5 µM | [16] > 100 µM | [17] > 100 µM | [18] 96.8 µM | [19] > 100 µM | [20] > 100 µM | [21] > 100 µM | [22] > 100 µM | [23] > 100 µM | [24] > 100 µM | [25] > 100 µM | [26] > 10 µM | [27] > 100 µM | [28] > 100 µM | [29] 32.7 µM | [30] 18.2 µM | [31] > 100 µM | [32] 68.7 µM | [33] 39 µM | [34] 13 µM | [35] > 100 µM | [36] 51.2 µM | [37] 35.2 µM | [38] 92.9 µM | [39] > 100 µM | [40] > 100 µM | [41] 22 µM | [42] > 100 µM | [43] 3.85 µM | [44] 76 µM | [45] > 100 µM | [46] 2.32 µM | [47] > 100 µM | [49] 77.1 µM | [50] > 100 µM | [51] > 100 µM | [52] 14.8 µM | [53] > 100 µM | [54] 34.8 µM
98.6 µM: [48]

CC1C(c2ccccc2)N(C)C(c2ccccc2)C(C)C1(O)c1ccccc1 (stereo not given)
inactive: [1] 47.4 µM | [2] > 100 µM | [3] > 100 µM | [4] 40.7 µM | [5] > 100 µM | [6] > 100 µM | [7] 44.2 µM | [8] > 100 µM | [9] > 100 µM | [10] 46.7 µM | [11] 51.4 µM | [12] 31.8 µM | [13] > 100 µM | [14] > 100 µM | [15] > 100 µM | [16] > 100 µM | [17] 55.8 µM | [18] > 100 µM | [19] > 100 µM | [20] > 100 µM | [21] 54 µM | [22] > 100 µM | [23] > 100 µM | [24] > 100 µM | [25] > 100 µM | [55] > 100 µM | [26] > 100 µM | [27] > 100 µM | [28] 79.6 µM | [29] > 100 µM | [30] 83.9 µM | [31] > 100 µM | [32] > 100 µM | [33] > 100 µM | [35] > 100 µM | [36] 77.8 µM | [37] 99.5 µM | [38] > 100 µM | [56] 73.3 µM | [39] 26.4 µM | [40] > 100 µM | [41] > 100 µM | [42] > 100 µM | [44] > 100 µM | [45] > 100 µM | [46] > 100 µM | [47] 20 µM | [49] > 100 µM | [50] > 100 µM | [51] 34.4 µM | [52] 42.3 µM | [53] > 100 µM | [54] 37.2 µM
84.1 µM: [48]

c1ccc2c(c1)CCc1cc3cc4c(nc3nc1-2)-c1ccccc1CC4
> 100 µM: [48]
inactive: [1] > 100 µM | [2] > 100 µM | [3] > 100 µM | [4] > 100 µM | [6] > 100 µM | [7] > 100 µM | [9] > 100 µM | [10] > 100 µM | [11] > 100 µM | [12] > 100 µM | [13] > 100 µM | [14] > 100 µM | [16] > 100 µM | [17] > 10 µM | [18] > 100 µM | [19] 83 µM | [20] > 100 µM | [21] > 100 µM | [23] > 100 µM | [24] > 100 µM | [25] > 100 µM | [55] 69.7 µM | [26] > 100 µM | [27] > 100 µM | [29] > 100 µM | [32] > 100 µM | [33] > 100 µM | [34] > 100 µM | [35] > 100 µM | [36] > 100 µM | [37] > 100 µM | [38] > 100 µM | [56] > 100 µM | [39] > 100 µM | [40] > 100 µM | [41] > 100 µM | [42] > 100 µM | [43] > 100 µM | [45] > 100 µM | [46] > 100 µM | [47] > 100 µM | [49] 83 µM | [50] > 100 µM | [51] > 100 µM | [53] > 100 µM | [54] > 100 µM
